For assay [1], the system named is whole blood IFN-gamma response to EBNA-1 from the Epstein-Barr virus. The assay can be described thus: QuantiFERON assay measuring anti-EBV cellular immune responses (EBNA-1 peptides) plus/minus trehalose. The assay is classed as cell-based. On the procedure: Investigations using QuantiFERON technology to measure responses to the model antigen EBNA-1 from the Epstein-Barr virus were performed to assess increases in assay sensitivity induced by the addition of non-reducing sugars to the incubation mixture. Briefly, EBNA-1 peptides were added to a blood collection tube, plus/minus 3 concentrations of a trehalose solution (0.5, 1.0 or 2.0 mg/ml trehalose). QuantiFERON assay measuring anti-EBV cellular immune responses was run according to the manufacturer's instructions. The IFN-gamma response was determined and compared depending on the concentration of trehalose. […] A concentration of 2 mg/ml trehalose provided the best results in this test assay.

Assay [2] has as its system blood from healthy donors; CD8+ T cells, IFN-gamma response to Cytomegalovirus peptides. The assay can be described thus: QFN-CMV assay with addition of trehalose. The assay is classed as cell-based, human. On the procedure: QuantiFERON (QFN) CMV is a CE registered assay monitoring T cell immune memory directed against antigens derived from the Cytomegalovirus. The QFN-CMV blood tubes contain peptides designed to specifically activate CD8+ T cells to produce interferon gamma (IFN-gamma). These tubes only contain peptide and heparin, with no addition of any sugar molecule.
This experiment aimed to investigate the effect on the IFN-gamma response when the non-reducing sugar, trehalose, was added to QFN-CMV tubes. 0, 1, 5 or 10 mg/ml of a trehalose (in water) solution was added to QFN-CMV blood collection tubes. 1 ml of blood from 17 healthy donors with a known anti-CMV T cell response was then added to each of the four tubes, and in addition a Nil tube and a Mitogen tube were run as controls. The QFN assay was then run according to the package insert. All values had the Nil value subtracted. IFN-gamma levels in IU/ml were normalized against the respective QFN-CMV+0 mg/ml trehalose (untreated control) to generate a ‘fold-change’ unit; to control for inter-donor variation in response magnitude. Healthy donors without a detectable anti-CMV immune response were included to control against non-specific IFN-gamma induction by trehalose.

For assay [3], the system named is whole blood from subjects with MTB infection; IFN-gamma response to Mycobacterium tuberculosis antigens ESAT-6 and CFP-10. The assay can be described thus: QFN-TB antigen tubes manufactured with or without trehalose. It counts as cell-based, human. Conditions: trehalose tube versus sugar free tube; 20 subjects with MTB infection; paired one-tailed t test, P=0.0005.

The subject of assay [4] is whole blood from donors; IFN-gamma response to CMV antigens. The assay can be described thus: QFN CMV assay with four different non-reducing sugars. The assay is classed as cell-based, human. Conditions: for response to the CMV antigens (percentage increase in IFN-gamma IU/ml over the non-additive tube): 2 mg/ml final blood concentration, 5 donors, background subtracted. On the procedure:
For this experiment, four different non-reducing sugars were added to QFN CMV antigen tubes and a corresponding Nil tube. To reach a final blood concentration of 2 mg/ml, a corresponding solution of sucrose, trehalose, mannitol and raffinose in PBS was added to whole blood obtained from 5 donors. […] The assay was run in accordance with the QFN package insert which is an established assay. The x-axis (see FIG. 3) indicates the tested conditions. The background (value from Nil tubes with/without the addition of the respective sugar) was subtracted from the corresponding CMV tube and the percentage increase in the IFN-gamma value (IU/ml) over the non-additive tube calculated (y axis).

The record followed here is US10564150B2, “Cell mediated immune response assay” (priority 2012, dated 2020).

Consider `OC[C@H]1O[C@H](O[C@H]2O[C@H](CO)[C@@H](O)[C@H](O)[C@H]2O)[C@H](O)[C@@H](O)[C@@H]1O` [trehalose], for which the IFN-gamma response entry in assay [1] (0.5, 1.0 or 2.0 mg/ml trehalose, with increasing concentration) is on record as “increase in IFN-gamma response”. Further, the “trehalose concentration providing the best results” value in assay [1] (of 0.5, 1.0 and 2.0 mg/ml tested) was 2 mg/mL. The “mean level of IFN-gamma (fold change versus matched untreated control)” value in assay [2] (0, 1, 5 or 10 mg/ml trehalose, 17 healthy donors with known anti-CMV T cell response, Nil subtracted) was “concentration-dependent increase”. Moreover, the “IFN-gamma fold change versus untreated control, significance” value in assay [2] (5 and 10 mg/ml trehalose, Friedmans test with Dunns multiple comparisons test) is listed as “significant increase”. Moreover, in assay [2] (trehalose added, data not shown), the “background level of IFN-gamma in CMV-negative control donors” value is on record as “No significant increase”. For the same compound, the “quantitative response of the assay (IFN-gamma IU/ml, nil subtracted)” value in assay [3] was “significantly enhanced”. Further, the “response to the CMV antigens (percentage increase in IFN-gamma IU/ml over the non-additive tube)” value in assay [4] was “increased response”. For the same compound, in assay [4] (2 mg/ml, order trehalose, mannitol, sucrose, raffinose), the “rank of the increase among the four non-reducing sugars” value is given as “highest increase”.

`OC[C@H]1O[C@@](CO)(O[C@H]2O[C@H](CO)[C@@H](O)[C@H](O)[C@H]2O)[C@@H](O)[C@@H]1O` [sucrose]: the “response to the CMV antigens (percentage increase in IFN-gamma IU/ml over the non-additive tube)” value in assay [4] is given as “increased response”.

For `OC[C@@H](O)[C@@H](O)[C@H](O)[C@H](O)CO` [mannitol], the “response to the CMV antigens (percentage increase in IFN-gamma IU/ml over the non-additive tube)” value in assay [4] is “increased response”.

With `OC[C@H]1O[C@H](OC[C@H]2O[C@H](O[C@]3(CO)O[C@H](CO)[C@@H](O)[C@@H]3O)[C@H](O)[C@@H](O)[C@@H]2O)[C@H](O)[C@@H](O)[C@H]1O` [raffinose], in assay [4], the “response to the CMV antigens (percentage increase in IFN-gamma IU/ml over the non-additive tube)” value is “increased response”.
